Test results as given in patent US20090197916A1, “SOLUBLE EPOXIDE HYDROLASE INHIBITORS FOR TREATMENT OF METABOLIC SYNDROME AND RELATED DISORDERS” (Arete Therapeutics, Inc, priority 2007, published 2009).

Legend:
[1] = molecular target: T1, sEH (Homo sapiens, UniProt P34913); assay: sEH inhibition, fluorescent assay with CMNPC substrate (percent inhibition and IC50); format: biochemical; details: for IC50: procedure similar to the percent inhibition procedure
T1 sequence (P34913 1-555): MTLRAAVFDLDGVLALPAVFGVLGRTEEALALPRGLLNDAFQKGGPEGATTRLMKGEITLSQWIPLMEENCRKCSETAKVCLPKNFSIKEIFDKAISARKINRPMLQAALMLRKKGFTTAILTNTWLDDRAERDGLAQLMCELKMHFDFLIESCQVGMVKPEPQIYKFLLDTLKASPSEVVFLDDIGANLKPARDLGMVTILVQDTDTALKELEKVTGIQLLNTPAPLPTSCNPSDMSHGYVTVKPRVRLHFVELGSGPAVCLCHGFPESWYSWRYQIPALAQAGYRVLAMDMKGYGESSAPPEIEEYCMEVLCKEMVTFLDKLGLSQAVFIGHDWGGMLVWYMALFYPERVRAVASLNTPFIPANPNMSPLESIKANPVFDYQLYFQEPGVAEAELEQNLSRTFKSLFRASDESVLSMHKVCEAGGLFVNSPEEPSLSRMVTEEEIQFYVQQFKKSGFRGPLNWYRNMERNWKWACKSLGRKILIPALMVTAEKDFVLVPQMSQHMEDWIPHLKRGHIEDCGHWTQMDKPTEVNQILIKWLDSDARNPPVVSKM
Experimental: The substrate for the reaction was:
Therefore, well A2 would refer to a well in the first row and second column of the plate.
In a black 96 well plate, all the wells are filled with 150 μL of buffer A (Buffer A: Bis/Tris HCl, 25 mM, pH 7.0 plus 0.1 mg/mL BSA). DMSO (2 microliters) was added in well A2 and A3, and then was added 2 μL of inhibitor solution in A1 and A4 through A12. […] The plate was incubated for 5 minutes in the plate reader at 30° C. During incubation, the working solution of substrate was prepared by mixing 3.68 mL of buffer A with 266 μL of 0.5 mM substrate solution. At t=0, 30 μL of working substrate solution was added and readings were started ([S]final: 5 μM).

[2] = test system: wild-type mice on high-fat, high-fructose diet (HF) or standard chow (NC); assay: Metabolic Syndrome Model 2: diet induced obesity mouse model; format: in vivo; details: for weight gain, HF-fed animals / total plasma cholesterol / glucose tolerance (GTT) / statistical significance of attenuated weight gain: HF diet; for weight gain, HF-fed animals: 60 mg/kg twice daily (Losartan 10 mg/kg/day in drinking water); for weight gain, HF-fed animals / total plasma cholesterol / glucose tolerance (GTT): vs vehicle; for total plasma cholesterol: 60 mg/kg twice daily, 4 weeks; for glucose tolerance (GTT): after 4 weeks of dosing 60 mg/kg twice daily; for statistical significance of attenuated weight gain: from second week of dose administration
From the text: Seven groups of 10 wild-type mice were entered onto the study. Five groups were placed on an ad libitum high-fat, high-fructose diet (HF); two groups were fed ad libitum with standard rodent chow and water (NC). Animals were maintained on the respective diet for the entire 12 weeks of the study. […] Losartan (Cozaar®) is a compound approved by the FDA for the treatment of hypertension, reducing the risk of stroke in a patient with hypertension and left ventricular hypertrophy, and treatment of diabetic nephropathy with an elevated serum […] and proteinuria in patients with type 2 diabetes and a history of hypertension.
Glucose tolerance tests (GTTs) were performed in Week 7 (prior to the start of dosing) and Week 12 (after 4 weeks of dosing). Body weights were recorded semi-weekly throughout the study whereas chow consumption and liquid intake were recorded weekly. Plasma was collected from untreated (Week 7, prior to the start of dosing) and treated (at the end of in-life) animals and submitted for the determination of plasma cholesterol. At the end of the in-life period, animals were sacrificed after terminal bleeds and discarded; no necropsies were performed.

[3] = test system: male C57Bl/6 mice on high-fat, high-fructose diet; assay: Metabolic Syndrome Model 1: diet induced obesity mouse model; format: in vivo
Experimental: A diet induced obesity mouse model was used to evaluate the efficacy of the sEH inhibitor 1-[1-(methylsulfonyl)piperidin-4-yl]-3-(adamant-1-yl)urea (Compound 5) for the treatment of metabolic syndrome and the adverse conditions related thereto.
The study was performed using 7-8 week old male C57Bl/6 mice. The mice were acclimated a minimum of five days prior to the start of study and were housed five per cage in microisolators in a 12:12 light/dark cycle (all work was done in a BioBubble Hood™). Water and food was provided ad libitum.
The mice were provided a high-fat, high-fructose diet for a total of 11 weeks, within the first 5 weeks the animals became obese, insulin resistant, have increased plasma cholesterol and mildly hypertensive. The mice were separated into three groups, each group consisting of 10 mice after the first 5 weeks on the high-fat, high-fructose diet. The mice continued to receive the high-fat, high-fructose diet but also began to receive treatment for the remaining 6 weeks of the study for a total of 11 weeks of study. During the treatment phase, Group 1 was administered vehicle alone, perorally, twice a day for six weeks (control group); group 2 was administered 20 mg/kg of Compound 5, perorally, twice a day for six weeks; group 3 was administered 60 mg/kg Compound 5, perorally, twice a day for six weeks. At intervals of 3 and 5.5 weeks after the beginning of the treatment phase of the study, glucose tolerance tests were administered. At the beginning of the treatment phase and after 5 weeks of dosing, samples were collected for plasma cholesterol measurements. Blood pressure was measured 3 weeks after the start of the treatment phase of the study.
HF diet with 45% fat by calorie (Research Diets, D12451)
High-Fructose (degassed 7up)
Group 2) High-Fat Diet+Compound 5-20 mg/kg p.o. (perorally) b.i.d. (twice a day)
Group 3) High-Fat Diet+Compound 5-60 mg/kg p.o. (perorally) b.i.d. (twice a day)
Throughout duration of the study body weight, food, and fructose consumption was measured twice a week. Blood pressure and heart rate was measured one week.
Mice were randomized on the basis of average Body Weight in each of the three groups (n=10/gp).
GTT—Animals were fasted for 4 hours followed by a glucose load (2 g/kG body wt). The tip (3 mm) of the tail was excised and blood samples were taken for glucose clearance measurements (Glucometer) at T=0, 15, 30, 60, 90, and 120 minutes. This test determines if the animal is has glucose intolerance.
Plasma was analyzed using a lipid and chem panel analysis (Lipid-total cholesterol, HDL, LDL and Triglycerides, FFA).
p.o. (perorally) dosing of Compound 5 at 20 mg/kg and at 60 mg/kg begins b.i.d. twice a day) for […]
Measure blood pressure using a non-invasive CODA 6 occlusion cuff system

[4] = test system: Zucker diabetic fatty rats (ZDF); assay: Model 4: Zucker diabetic fatty rats; format: in vivo; details: daily dose of 100 mg/kg for four weeks, vs vehicle
Experimental: All protocols were approved by the institutional animal care and use committee at Arête Therapeutics. Eight weeks old male Zucker diabetic fatty rats (ZDF) (Charles River Laboratory, Hollister, Calif.) with a 270 g body weight on average used in this study were fed a normal chow. Baseline blood pressure and body weight were measured before surgery. Animals were anesthetized by inhalation of 2% isoflurane. The animals were randomly divided into 2 groups; […] Four animals were assigned to the vehicle group and three to the Compound 2 group. After 4 weeks of treatment, systolic blood pressure was measured in conscious mice using a tail-cuff system (Kent Scientific Corporation, Torrington, Conn.), and the animals were euthanized. Blood samples were collected via cardiac puncture for the measurement of a serum cholesterol profile (IDEXX Veterinary Services, West Sacramento, Calif.) and tissues were removed for analysis. All results are presented as the mean and standard error (SEM). Comparison between the vehicle and Compound 2 treatment groups was performed using Student's t test.

Work on `O=C(NC1CCCCC1)NC1CCN(C(=O)c2ccccn2)CC1` [Compound 12, 1-cyclohexyl-3-(1-picolinoylpiperidin-4-yl)urea] yielded an IC50 [1] of 5.3 nM.
With `CS(=O)(=O)N1CCC(NC(=O)NC23CC4CC(CC(C4)C2)C3)CC1` [Compound 5, 1-[1-(methylsulfonyl)piperidin-4-yl]-3-(adamant-1-yl) urea] the “weight gain, HF-fed animals” value [2] was “gained less weight”, the total plasma cholesterol [2] was “statistically significant decreases in cholesterol” and the “glucose tolerance (GTT)” value [2] was “statistically significant improvements in glucose tolerance”. The “statistical significance of attenuated weight gain” value [2] was “statistically significant”, the “body weights, animals on NC” value ([2]; NC diet, Compound 5 60 mg/kg twice daily vs vehicle) was “similar” and the cholesterol level ([3]; 60 mg/kg twice a day, vs vehicle, p<0.01) was “statistically lower cholesterol level”. The blood pressure ([3]; 60 mg/kg twice a day, vs vehicle, p<0.05) was “statistically significantly lower blood pressure”, the heart rate ([3]; 20 and 60 mg/kg b.i.d.) was “did not significantly alter heart rate” and the “systolic and diastolic blood pressure” value ([3]; 20 and 60 mg/kg b.i.d., 3 weeks of treatment, vs control) was “reduced”. The “serum glucose in GTT” value ([3]; 20 and 60 mg/kg p.o. b.i.d., relative to control group) was “decrease in serum glucose”, the “area under the curve for plasma glucose after interperitonial glucose” value ([3]; both 20 and 60 mg/kg twice a day, vs vehicle and start of treatment, p<0.01) was “statistically lower area under the curve” and the body weight ([3]; either dose (20 or 60 mg/kg p.o. b.i.d.), vs vehicle) was “stabilization in body weight”. The plasma cholesterol levels ([3]; relative to control group, 5 weeks of dosing) was “reduced” and the mean blood pressure ([3]; vs control group) was “similarly reduced”.
`CC(=O)N1CCC(NC(=O)NC23CC4CC(CC(C4)C2)C3)CC1` [Compound 2, 1-[1-(acetyl)piperidin-4-yl]-3-(adamant-1-yl) urea] was tested, and the HDL level [4] was “decreased”, the LDL [4] was “significantly decreased” and the “blood glycated hemoglobin (HbA1c %)” value [4] was “significantly decreased”. For the same molecule, the “fasting plasma glucose level” value [4] was “significantly decreased”, the total cholesterol [4] was “significantly decreased” and the “triglycerides (TGs)” value [4] was “significantly decreased”.
`O=C(Nc1ccc(C(F)(F)F)cc1)NC1CCN(c2ccc(C(F)(F)F)cn2)CC1` [Compound 14, 1-(4-(trifluoromethyl)-phenyl)-3-(1-(5-(trifluoromethyl)-pyridin-2-yl)piperidin-4-yl)urea] was tested, and the IC50 [1] was 7.5 nM.
`CC(=O)NC1CCC(NC(=O)Nc2ccc(C(F)(F)F)cc2)CC1` (stereo not drawn) [Compound 17, N-(4-(3-(4-(trifluoromethyl)phenyl)ureido)cyclohexyl)acetamide] was tested, and the IC50 [1] was 6.2 nM.
In the case of `O=C(Nc1ccc(C(F)(F)F)cc1)Nc1cccc(C(=O)N2CCOCC2)c1` [Compound 1, 1-[3-(morpholino-4-carbonyl)phenyl]-3-(4-trifluoromethylphenyl) urea], the “% Inhibition” value ([1]; Concentration 50 nM) is reported as 82%.
For `CC(C)(C)CC(=O)N1CCC(NC(=O)Nc2ccc(C(F)(F)F)cc2)CC1` [Compound 7, 1-(1-(3,3-dimethylbutanoyl)piperidin-4-yl)-3-(4-(trifluoromethyl)phenyl)urea], the IC50 [1] was 0.8 nM.
With `O=C(Nc1ccc(C(F)(F)F)cc1)Nc1ccc(S(=O)(=O)c2ccccc2)cc1` [Compound 18, 1-(4-benzenesulfonyl-phenyl)-3-(4-trifluoromethyl-phenyl)-urea] the IC50 [1] was 3.8 nM.
For `O=C(Nc1ccc(C(F)(F)F)cc1)Nc1ccc(Oc2ccccc2)nc1` [Compound 16, 1-(6-phenoxypyridin-3-yl)-3-(4-(trifluoromethyl)phenyl)urea], the IC50 [1] was 7.1 nM.
`CS(=O)(=O)N1CCC(NC(=O)Nc2ccc(C(F)(F)F)cc2)CC1` [Compound 4, 1-[1-(methylsulfonyl)piperidin-4-yl]-3-(4-trifluoromethylphenyl) urea] was tested, and the “weight gain, HF-fed animals” value [2] was “gained less weight”, the total plasma cholesterol [2] was “decreases in total plasma cholesterol level, although not statistically significant” and the “glucose tolerance (GTT)” value [2] was “statistically significant improvements in glucose tolerance”.
For `CC(=O)N1CCC(NC(=O)Nc2ccc(C(F)(F)F)cc2)CC1` [Compound 3, 1-[1-(acetyl)piperidin-4-yl]-3-(4-trifluoromethylphenyl) urea], the “weight gain, HF-fed animals” value [2] was “gained less weight”, the total plasma cholesterol [2] was “slight elevation of total cholesterol” and the “glucose tolerance (GTT)” value [2] was “statistically significant improvements in glucose tolerance”. For the same molecule, the “statistical significance of attenuated weight gain” value [2] was “statistically significant”.
In the case of `CC(C)S(=O)(=O)N1CCC(NC(=O)Nc2ccc(OC(F)(F)F)cc2)CC1` [Compound 13, 1-(1-(isopropylsulfonyl)piperidin-4-yl)-3-(4-(trifluoromethoxy)phenyl)urea], the IC50 [1] is reported as 1.6 nM.
With `CC(C)OC(=O)N1CCC(NC(=O)Nc2ccc(OC(F)(F)F)cc2)CC1` [Compound 15, isopropyl 4-(3-(4-(trifluoromethoxy)phenyl)ureido)piperidine-1-carboxylate] the IC50 [1] was 2.1 nM.
`CC(=O)N1CCC(NC(=O)Nc2cccc(C(F)(F)F)c2)CC1` [Compound 9, 1-(1-Acetyl-piperidin-4-yl)-3-(3-trifluoromethyl-phenyl)-urea] was tested, and the IC50 [1] was 10.1 nM.
For `CC(C)OC(=O)N1CCC(NC(=O)Nc2ccc(C(F)(F)F)cc2)CC1` [Compound 11, isopropyl 4-(3-(4-(trifluoro-methyl)phenyl)ureido)-piperidine-1-carboxylate], the IC50 [1] was 0.8 nM.
In the case of `CCCCc1nc(Cl)c(CO)n1Cc1ccc(-c2ccccc2-c2nn[nH]n2)cc1` [Losartan, reference compound], the “weight gain, HF-fed animals” value [2] is reported as “gained less weight”.
